“Also recorded” adds a separate entry of the source. Read-outs that look alike come from different tables or passages of the source. *1 amine or outer side, *2 acyl side, *3 side chain or, on linkers, in order; H or OH if unused. Where a SMILES comes first, the peptide text is derived from it. Bridges are numbered along the chain shown (N, C = ends). Roman numbers before positions name the chains, in order. [ ]: non-standard residue; d: D form. Actinocin(9to1) = Cc1c2oc3c(C)ccc(C(=O)[*:1])c3nc-2c(C(=O)[*:2])c(N)c1=O; NMeV = CN[C@H](C(=O)O)C(C)C; Sar = CNCC(=O)O
Legend:
human TMPRSS2 = molecular target: T1, human TMPRSS2 (Homo sapiens, UniProt O15393); experiment: Inhibition assay of human TMPRSS2 (fluorogenic peptide); type: biochemical
T1 construct: the purified MBP-tagged TMPRSS2 (residues 256-492) activity; made in house; host or cells: E. coli BL21 (DE3)
Protocol: Cloning of TMPRSS2 was performed as previously reported. The synthetic gene encoding the catalytic domain of human TMPRSS2 (residues 256–492) was cloned into the pMAL-c5X vector (New England Biolabs). This plasmid was transformed into E. coli BL21 (DE3) for protein overexpression. Overnight culture of a single transformant (5 mL) was added to 500 mL of fresh LB medium containing […] ampicillin. The cells were grown to an OD600 of 0.6 and added with 1 mM isopropyl-β-thiogalactopyranoside for further 20 h incubation at 16 °C for recombinant protein production. The cells were harvested by centrifugation at 7000× g for 15 min.
Purification of the maltose-binding protein (MBP)-tagged TMPRSS2 was conducted at 4 °C. The cell paste obtained from the cell culture (1 L) was suspended in a lysis buffer (40 mL) containing 25 mM Tris-HCl (pH 7.5) and 150 mM NaCl. To disrupt the cells, a French press was used. The cell-free extract was loaded onto a 10 mL amylose resin column (New England Biolabs, Ipswich, MA, USA) equilibrated with the lysis buffer. The column was washed with 10 column volumes of lysis buffer, and then the MBP-tagged TMPRSS2 bound to the amylose resin was eluted with the elution buffer (25 mM Tris, pH 7.5, 150 mM NaCl, and 10 mM maltose).
For assaying the inhibition of the purified MBP-tagged TMPRSS2 (residues 256-492) activity, a fluorogenic peptide substrate, Boc-Gln-Ala-Arg-AMC, was used with excitation at 355 nm and emission at 460 nm. The enzyme (0.22 μM) was preincubated in the presence or absence of various concentrations of inhibitors in 20 mM HEPES and pH 7.5 assay buffer for 10 min in black 96-well immuno plates (Thermo Scientific). Next, the fluorescent substrate (10 μM) was added and incubated for 60 min at room temperature. The reactions were monitored by using a fluorescence plate reader (Fluoroskan Ascent, Thermo Labsystems, Franklin, MA, USA). The initial velocities of the inhibited reactions were plotted against the different inhibitor concentrations to yield the IC50 value by fitting with the equation A(I) = A(0) × {1 − [I/(I + IC50)]}. In this equation, A(I) is the enzyme activity with inhibitor concentration I, and A(0) is the enzyme activity without an inhibitor. For each data point, the measurements were repeated thrice to yield the mean and standard deviation.

SARS-CoV-2 PL^pro = molecular target: T2, SARS-CoV-2 PL^pro (Severe acute respiratory syndrome coronavirus 2, UniProt P0DTD1); experiment: biochemical
T2 construct: The synthetic gene of SARS-CoV-2 PL^pro was cloned into the pET16b vector; made in house; host or cells: E. coli BL21(DE3)

SARS-CoV-2 3CL^pro = SARS-CoV-2 3CL^pro (Severe acute respiratory syndrome coronavirus 2, UniProt P0DTD1); experiment: biochemical
SARS-CoV-2 = experiment: Plaque reduction assay in Vero E6 cells; type: cell-based; conditions: 120 h
Vero E6 cells [1] = experiment: Cytotoxicity seen in the plaque reduction assay; conditions: Figure 7b, seen at 0.2 μM
[2] = molecular target: spike RBD–ACE2 interaction (wild-type) (Severe acute respiratory syndrome coronavirus 2, UniProt P0DTC2); type: cell-based, SARS-CoV-2; conditions: RBD attachment assay
Vero E6 cells [3] = tested on: Vero E6 cells
[4] = cited from earlier work
[5] = 75 nM PL^pro, 10 μM z-Arg-Leu-Arg-Gly-Gly-AMC, pH 7.5, read-out: IC50
[6] = 0.22 μM MBP-tagged TMPRSS2 (residues 256-492), 10 μM Boc-Gln-Ala-Arg-AMC, read-out: IC50

T1 sequence (O15393 256-492): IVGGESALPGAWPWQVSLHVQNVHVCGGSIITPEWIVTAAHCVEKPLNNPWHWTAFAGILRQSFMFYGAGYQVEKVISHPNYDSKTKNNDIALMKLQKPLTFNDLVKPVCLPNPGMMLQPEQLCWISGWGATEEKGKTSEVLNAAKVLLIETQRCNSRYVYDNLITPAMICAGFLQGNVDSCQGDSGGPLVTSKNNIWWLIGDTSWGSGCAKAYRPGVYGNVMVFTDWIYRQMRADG

Question: For `CN(C)C/C=C/C(=O)Nc1cc2c(Nc3ccc(F)c(Cl)c3)ncnc2cc1O[C@H]1CCOC1` [Afatinib], which IC50 (human TMPRSS2) is on record?
Answer: Its IC50 is 28.4 ± 1.5 µM.

Question: And the IC50 (SARS-CoV-2 PL^pro; [5])?
Answer: The IC50 was 45.6 ± 4.2 µM.

Question: For `Cc1c2oc3c(C)ccc(C(=O)N[C@@H]4C(=O)N[C@H](C(C)C)C(=O)N5CCC[C@H]5C(=O)N(C)CC(=O)N(C)[C@@H](C(C)C)C(=O)O[C@@H]4C)c3nc-2c(C(=O)N[C@@H]2C(=O)N[C@H](C(C)C)C(=O)N3CCC[C@H]3C(=O)N(C)CC(=O)N(C)[C@@H](C(C)C)C(=O)O[C@@H]2C)c(N)c1=O` [Dactinomycin] (I: T[dV]P[Sar][NMeV] / II: T[dV]P[Sar][NMeV]; ester I:1-I:C, II:1-II:C; linker I:N-II:N via Actinocin(9to1)), which IC50 (SARS-CoV-2 PL^pro; [5]) is on record?
Answer: The IC50 was 14.7 ± 2.6 µM.

Question: And the IC50 (SARS-CoV-2 3CL^pro; 35 nM 3CL^pro, 6 μM fluorogenic substrate, pH 7.0, read-out: IC50)?
Answer: The IC50 was 37.6 ± 2.8 µM.

Question: With `COc1cccc2c1C(=O)c1c(O)c3c(c(O)c1C2=O)C[C@@](O)(C(=O)CO)C[C@@H]3O[C@H]1C[C@H](N)[C@H](O)[C@H](C)O1` [Doxorubicin] as the compound, how does the IC50 (human TMPRSS2; [6]) read?
Answer: The IC50 was 8.2 ± 1.6 µM.

Question: And the “antiviral activity in plaque reduction assay” value (SARS-CoV-2; 10 μM)?
Answer: The value was “did not effectively inhibit the replication and infection of the virus”.

Question: And the IC50 (SARS-CoV-2 PL^pro)?
Answer: The IC50 was 4.6 ± 0.8 µM.

Question: For `CCN(CC)CCCC(C)Nc1c2ccc(Cl)cc2nc2ccc(OC)cc12` (centres unmarked) [Mepacrine], which IC50 (human TMPRSS2; [6]) is on record?
Answer: Its IC50 is 29.9 ± 3.7 µM.

Question: And the IC50 (SARS-CoV-2 PL^pro)?
Answer: The IC50 was 4.4 ± 0.9 µM.

Question: What does the source list for `CCOc1cc2ncc(C#N)c(Nc3ccc(OCc4ccccn4)c(Cl)c3)c2cc1NC(=O)/C=C/CN(C)C` [Neratinib]?
Answer: IC50 (human TMPRSS2; [6]): 25.9 ± 3.2 µM; IC50 (SARS-CoV-2 PL^pro; [5]): 11.6 ± 2.9 µM

Question: Which cytotoxicity (Vero E6 cells [1]) does the source give for `O=C(Nc1ccc([N+](=O)[O-])cc1Cl)c1cc(Cl)ccc1O` [Niclosamide] here?
Answer: The cytotoxicity was “cells appeared broken into tiny particles, revealing the cytotoxicity; also recorded: high cytotoxicity”.

Question: And the “antiviral activity in plaque reduction assay” value (SARS-CoV-2; 0.2 μM)?
Answer: Its value is “demonstrated antiviral property”.

Question: And the IC50 (SARS-CoV-2 PL^pro)?
Answer: The IC50 was 16.6 ± 1.8 µM.

Question: What about the IC50 (SARS-CoV-2 3CL^pro) of the same compound?
Answer: Its IC50 is 18.7 ± 0.9 µM.

Question: With `CO[C@H]1C[C@@H]2CC[C@@H](C)[C@@](O)(O2)C(=O)C(=O)N2CCCC[C@H]2C(=O)O[C@H]([C@H](C)C[C@@H]2CC[C@@H](O)[C@H](OC)C2)CC(=O)[C@H](C)/C=C(\C)[C@@H](O)[C@@H](OC)C(=O)[C@H](C)C[C@H](C)/C=C/C=C/C=C/1C` [Rapamycin] as the compound, how does the “inhibition of TMPRSS2 (in words)” value (human TMPRSS2; IC50 threshold 50 μM) read?
Answer: Its value is “did not inhibit”.

Question: And the “inhibition of RBD–ACE2 interplay (in words)” value [2]?
Answer: The value was “could not efficiently inhibit the interplay between the RBD and ACE2”.

Question: And the “antiviral activity in plaque reduction assay” value (SARS-CoV-2; 20 μM)?
Answer: The value was “did not exert a significant effect on the inhibition of viral infection”.

Question: What about the IC50 (SARS-CoV-2 PL^pro; [5]) of the same compound?
Answer: The IC50 was 31 ± 2.4 µM.

Question: Which results are given for `CC/C(=C(\c1ccccc1)c1ccc(OCCN(C)C)cc1)c1ccccc1` [Tamoxifen]?
Answer: cytotoxicity (Vero E6 cells [3]): without apparent cytotoxicity; IC50 (human TMPRSS2): 21.4 ± 1.6 µM; antiviral activity in plaque reduction assay (SARS-CoV-2; 10 μM): robustly protected cells from the viral infection; half-life [4]: 120 to 170 h
